According to the supplement of paper PMC11061612:

What was measured:
Assay in all cases: Bliss excess, mean over the matrix (fraction); higher = more synergy
[1] = system: DB (B-Cell Non-Hodgkin's Lymphoma)
Method in brief: (§1)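 After 24 hours at 37°C and 5% CO2 in 1536-well plates, cells in DMEM/F12 or RPMI plus 10% FBS received two-drug dose matrices for 72 hours. Viability came from CellTiter-Glo 2.0 luminescence and was scaled as inhibition, anchored at 0 by vehicle wells and at 1 by blank wells. Combination Emax is taken as the second-highest inhibition in the matrix, and Bliss excess as the observed combination effect less EA + EB − EA·EB, with EA and EB the single-agent effects.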

[2] = system: ES7 (Ewing's Sarcoma)
Method in brief: as §1

[3] = system: G-292-Clone-A141B1 (Osteosarcoma)
Method in brief: as §1

[4] = system: KARPAS-1106P (B-Cell Non-Hodgkin's Lymphoma)
Method in brief: as §1

[5] = system: KARPAS-620 (Plasma Cell Myeloma)
Method in brief: as §1

[6] = system: MDA-MB-157 (Breast Carcinoma)
Method in brief: as §1

[7] = system: MDA-MB-231 (Breast Carcinoma)
Method in brief: as §1

[8] = system: MFH-ino (Other Solid Carcinomas)
Method in brief: as §1

[9] = system: NALM-6 (B-Lymphoblastic Leukemia)
Method in brief: as §1

[10] = system: NCI-H1299 (Non-Small Cell Lung Carcinoma)
Method in brief: as §1

[11] = system: NCI-H211 (Small Cell Lung Carcinoma)
Method in brief: as §1

[12] = system: SW1990 (Pancreatic Carcinoma)
Method in brief: as §1

[13] = system: TE-5 (Esophageal Squamous Cell Carcinoma)
Method in brief: as §1

[14] = system: U-266 (Plasma Cell Myeloma)
Method in brief: as §1

SMILES	Bliss excess [1]	Bliss excess [2]	Bliss excess [3]	Bliss excess [4]	Bliss excess [5]	Bliss excess [6]	Bliss excess [7]	Bliss excess [8]	Bliss excess [9]	Bliss excess [10]	Bliss excess [11]	Bliss excess [12]	Bliss excess [13]	Bliss excess [14]
Cc1c2c(nn1C)CSCc1cc(n(C)n1)CSc1cc(c3ccccc3c1)OCCCc1c(C(=O)O)n(C)c3c-2c(Cl)ccc13 [AZD5991] + Nc1ccn([C@@H]2O[C@H](CO)[C@@H](O)C2(F)F)c(=O)n1 [Gemcitabine] (first compound max 1 µM, 7x7, partner max 0.3 µM)	0.06	0.0062	-0.0587	-0.0216	0.031	-0.0145	-0.0947	-0.0495	-0.0245	0.006	0.0489	0.0278	0.0112	0.0379
C[C@@H]1COCCN1c1cc(C2([S@](C)(=N)=O)CC2)nc(-c2ccnc3[nH]ccc23)n1 [AZD6738] + C1CC(C1)(C(=O)[O-])C(=O)[O-].N.N.[Pt+2] [Carboplatin] (first compound max 10 µM, 7x7, partner max 10 µM)	-0.0019	0.0089	0.0001	-0.0247	-0.0135	-0.0061	-0.0294	-0.0397	-0.0122	-0.0401	-0.0292	-0.0997	-0.0163	-0.0751
C[C@@H]1COCCN1c1cc(C2([S@](C)(=N)=O)CC2)nc(-c2ccnc3[nH]ccc23)n1 [AZD6738] + Nc1ccn([C@@H]2O[C@H](CO)[C@@H](O)C2(F)F)c(=O)n1 [Gemcitabine] (first compound max 10 µM, 7x7, partner max 0.3 µM)	-0.0172	0.0367	0.0421	0.0614	0.135	0.0295	0.0736	-0.0585	-0.0252	0.0963	0.0304	-0.0028	-0.0102	0.057
Cc1cc2ncnn2cc1Nc1ncc2c(n1)n(C1CCOCC1)c(=O)n2C [AZD7648] + COc1cc([C@@H]2c3cc4c(cc3[C@@H](O[C@@H]3O[C@@H]5CO[C@@H](C)O[C@H]5[C@H](O)[C@H]3O)[C@H]3COC(=O)[C@H]23)OCO4)cc(OC)c1O [Etoposide] (first compound max 10 µM, 7x7, partner max 10 µM)	0.0998	0.052	0.0701	0.0551	0.0051	0.0451	0.0776	0.0513	0.0869	0.113	0.0313	0.0302	-0.0089	-0.0446
C[C@@H](Nc1cc(F)cc(F)c1)c1cc(C(=O)N(C)C)cc2c(=O)cc(N3CCOCC3)oc12 [AZD8186] + C1CN(CCC1(C(=O)N[C@@H](CCO)C2=CC=C(C=C2)Cl)N)C3=NC=NC4=C3C=CN4 [AZD5363] (first compound max 10 µM, 7x7, partner max 10 µM)	-0.0191	0.0043	-0.0518	-0.0234	0.0152	0.0227	0.0036	-0.0258	-0.0357	0.0024	-0.0006	-0.0436	0.0152	-0.0427
C[C@@H](Nc1cc(F)cc(F)c1)c1cc(C(=O)N(C)C)cc2c(=O)cc(N3CCOCC3)oc12 [AZD8186] + CC(=O)c1c(C)c2cnc(Nc3ccc(N4CCNCC4)cn3)nc2n(C2CCCC2)c1=O [Palbociclib] (first compound max 10 µM, 7x7, partner max 10 µM)	0.0797	0.115	-0.0001	-0.04	0.15	0.0093	0.0305	0.0173	0.0084	0.0316	0.2	-0.0062	0.0301	-0.0285
C[C@@H](Oc1cc(-c2cnn(C3CCNCC3)c2)cnc1N)c1c(Cl)ccc(F)c1Cl [Crizotinib] + CC1=C(C(=CC=C1)Cl)NC(=O)C2=CN=C(S2)NC3=CC(=NC(=N3)C)N4CCN(CC4)CCO [Dasatinib] (first compound max 10 µM, 7x7, partner max 2 µM)	-0.0805	0.0273	0.028	-0.026	0.0032	-0.0052	0.0116	0.0577	0.022	0.123	-0.0089	-0.0312	0.0287	-0.0102
